The values that follow come from patent US20170298406A1, “SALT OF PHENYLGLYCINE METHYL ESTER” (DSM Sinochem Pharmaceuticals Netherlands B.V., priority 2014, published 2017).

Structures can show the parent of a compound that is named as a salt.

This data set can be described thus: Solubility of (PGMH)2SO4 in water as a function of temperature (HPLC of filtered supernatant). The class given is physicochemical. To be noted: filtrate by HPLC. From the text: In the preparation of (PGMH)2SO4 as described in Example 2 separation of the organic phase at pH=4.2 is done while (PGMH)2SO4 is supersaturated. At some point in time, crystallization may start before the organic layer is separated from the aqueous phase. In order to design a process that will avoid crystallization of (PGMH)2SO4 in the presence of organic solvent, and controlled crystallization after separation of the organic phase, solubility of (PGMH)2SO4 as a function of temperature was investigated. The hemi sulfuric acid salt of D-phenylglycine methyl ester (1 g), obtained as described in Example 2 was mixed with water (2 g) at 20° C. and the solid material dissolved. Additional hemi sulfuric acid salt of D-phenylglycine methyl ester (1 g) was added and the mixture was agitated at 20° C. for 25 minutes. Not all solid was dissolved. An aliquot of approximately 0.5 mL of supernatant was filtered, and in the filtrate the concentration of hemi sulfuric acid salt of D-phenylglycine methyl ester was determined by HPLC. The rest of the mixture was stirred at 3° C. Water (2 mL) was added to allow mixing. […] An aliquot of approximately 0.5 mL of supernatant was filtered and in the filtrate the concentration of hemi sulfuric acid salt of D-phenylglycine methyl ester was determined by HPLC.

For `COC(=O)[C@H](N)c1ccccc1` [hemi sulfuric acid salt of D-phenylglycine methyl ester], the “Solubility in water: hemi sulfuric acid salt of D-phenylglycine methyl ester (g)/kg of solution” value reads like this: (T 3 °C, agitated 30 minutes) 268 g/kg of solution; (T 20 °C, agitated 25 minutes) 478 g/kg of solution.
